# Assay results from publication PMC3894197, “Penam Sulfones and β-Lactamase Inhibition: SA2-13 and the Importance of the C2 Side Chain Length and Composition” (PLoS ONE, 2014).
# Key:
# SHV-1 [1] = molecular target: T1, SHV-1 (Klebsiella pneumoniae, UniProt P0AD64); experiment: IC50 by nitrocefin hydrolysis after pre-incubation of enzyme and inhibitor; format: biochemical
# T1 construct: made in house
# Protocol: (§1) Measurements were performed using glass cuvettes with 1 mL final volume in 1 mM phosphate-buffered saline (PBS) at pH 7.4 as previously described.
# wt SHV-1 = molecular target: T2, wt SHV-1 (Klebsiella pneumoniae, UniProt P0AD64); experiment: biochemical; format: biochemical
# T2 construct: made in house
# T2 sequence (P0AD64 22-286): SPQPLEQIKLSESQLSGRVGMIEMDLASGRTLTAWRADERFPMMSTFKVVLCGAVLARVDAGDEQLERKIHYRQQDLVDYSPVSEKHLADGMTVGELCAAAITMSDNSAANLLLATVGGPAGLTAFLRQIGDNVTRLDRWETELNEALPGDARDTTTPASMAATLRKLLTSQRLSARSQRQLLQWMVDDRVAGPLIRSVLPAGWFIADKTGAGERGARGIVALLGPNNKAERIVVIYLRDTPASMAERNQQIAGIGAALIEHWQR
# Protocol: as §1
# SHV-1 [2] = molecular target: T1, SHV-1; experiment: Inactivation kinetics (kinact, KI, kinact/KI) with nitrocefin; format: biochemical
# Protocol: kinact (the first-order rate constant of inactivation) was determined by monitoring the inactivation of the enzyme by increasing concentrations of inhibitor over a time course using 21 nM of enzyme and 100 µM of nitrocefin according to a previously published method. The k obs determined using Origin (OriginLab Corporation) to plot the reciprocal of the ordinate of the intersection of the straight lines obtained from the initial velocity of inhibition, v o, and the final velocity of inhibition, vf. Each k obs was plotted against the inhibitor concentration [I] and fit to equation 2 to calculate k inact and k inact/K I. [drawing 2] (2)
# SHV-1 [3] = molecular target: T1, SHV-1; experiment: Partition ratio (turnover number, tn); format: biochemical; conditions: SHV-1, 24 hour incubation, loss of >90% nitrocefin hydrolysis
# Protocol: The partition ratio (turnover number, t n = k cat/k inact) or the partitioning of the initial enzyme-inhibitor complex between hydrolysis and enzyme inactivation was measured by incubating fixed enzyme concentrations with increasing amounts of inhibitor over a 24 hour period in a total volume of 100 µL as described. After 24 hours, a 20 µL aliquot of the incubation mix was removed and the steady-state hydrolysis of nitrocefin was measured and compared to an uninhibited control. The t n was determined as the inhibitor proportion that led to a loss of >90% of nitrocefin hydrolysis by the enzyme.
# [4] = tested on: E. coli ATCC 35218 containing TEM-1; experiment: Antimicrobial disc assay; format: cell-based, Escherichia coli; conditions: 10 µg ampicillin and 10 µg inhibitor; disc and ampicillin alone 6 mm
# Protocol: (§2) In brief, paper discs (6 mm diameter) were soaked with 10 µg inhibitor and 10 µg of ampicillin or cephalothin. Discs were placed on Mueller-Hinton (M-H) agar plates plated with 10^4–10^5 CFUs of Escherichia coli DH10B harboring SHV-1 or PDC-3 or E. coli ATCC 35218 containing TEM-1. Measured zone clearing diameters were used to determine susceptibility.
# (§3) Supplementary file pone.0085892.s003.docx: Table S1 Antimicrobial disc assays. These assays were performed with 10 µg ampicillin and 10 µg inhibitor. The size of the disc and the ampicillin zone size alone is 6 mm. (DOCX) Click here for additional data file.
# E. coli DH10B PDC-3 = experiment: Antimicrobial disc assay; format: cell-based, Escherichia coli; conditions: for Disc Assay Zone E. coli DH10B PDC-3: 10 µg ampicillin and 10 µg inhibitor, disc and ampicillin alone 6 mm
# Protocol: as §2, §3
# E. coli DH10B SHV-1 = experiment: Antimicrobial disc assay; format: cell-based, Escherichia coli; conditions: for Disc Assay Zone E. coli DH10B SHV-1: 10 µg ampicillin and 10 µg inhibitor, disc and ampicillin alone 6 mm
# Protocol: as §2, §3
# KPC-2 = tested on: KPC-2; set-up: method as in PMID 22330909; conditions: the defined K i represents the K m used in Ke et al.; cited from earlier work
# SHV-1 [5] = molecular target: T1, SHV-1; experiment: Reactivation of β-lactamase (k obs react) after inhibitor/enzyme incubation; format: biochemical; conditions: SHV-1, 90:1 inhibitor:enzyme, 30 min incubation
# Protocol: Then, unbound inhibitor was washed out with a Macro Spin Column G10 (The Nest Group). A competition assay was performed with 100 µM of nitrocefin and a 5 µL aliquot of the incubated mixture at three different time points (5, 30, and 1440 min) to determine the reactivation of the enzyme. Tazobactam kinetic profiles are included for comparison. EnzFitter™ (Biosoft) and Microsoft Excel were used to analyze the data.
# SHV K234R [6] = molecular target: T3, SHV K234R (Klebsiella pneumoniae, UniProt P0AD64, K230R); experiment: biochemical; format: biochemical
# T3 construct: GST (N, cleaved yes); made in house; host or cells: Origami2 (DE3) E. coli
# T3 sequence (P0AD64 22-286 K230R): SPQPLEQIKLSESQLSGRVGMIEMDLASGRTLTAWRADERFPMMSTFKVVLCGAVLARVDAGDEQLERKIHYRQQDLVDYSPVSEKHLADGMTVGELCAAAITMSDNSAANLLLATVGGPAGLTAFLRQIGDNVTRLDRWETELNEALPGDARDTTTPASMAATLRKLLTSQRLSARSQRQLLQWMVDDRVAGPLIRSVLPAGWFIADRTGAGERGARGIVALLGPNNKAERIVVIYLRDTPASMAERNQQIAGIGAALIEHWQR
# Protocol: as §1
# SHV K234R [7] = molecular target: T3, SHV K234R; experiment: Circular dichroism thermal denaturation; conditions: CD at 208 nm, apo-K234R 48.2°C
# Protocol: (§4) Circular dichroism (CD) was carried out on the SHV-1 and the SHV K234R proteins with and without SA2-13 and this is presented in Figure S1. In short, CD was performed on a JASCO J-815 spectrometer with a Peltier-effect temperature controller (GE Healthcare) as previously described. Quartz cells with a 0.1 cm pathlength were used for experiments (Hellma). Thermal denaturation was performed from 22–72°C with a heating rate of 2°C/min and raw data was corrected for the fraction of denatured protein (f u). The collected data at 208 nm was utilized to calculate a melting temperature (T m).
# SHV-1 [8] = molecular target: T1, SHV-1; experiment: Circular dichroism thermal denaturation; conditions: CD at 208 nm, apo-SHV-1 54.2°C
# Protocol: as §4
# SHV-1 [9] = molecular target: T1, SHV-1; conditions: cited from earlier work
# T1 sequence (P0AD64 22-286): as the sequence (P0AD64 22-286) above
SMILES,IC50 (SHV-1 [1]),Ki (wt SHV-1),Ki (SHV-1 [2]),k inact/K I (SHV-1 [2]; SHV-1),t n 24h (SHV-1 [3]),Disc Assay Zone E. coli ATCC 35218 (TEM-1) [4],Disc Assay Zone E. coli DH10B PDC-3 (E. coli DH10B PDC-3),Disc Assay Zone E. coli DH10B SHV-1 (E. coli DH10B SHV-1),k obs react 30 min (SHV-1 [5]),further results
CC1(C(=O)OCC(N)=O)C(C(=O)O)N2C(=O)CC2S1(=O)=O (centres unmarked) [PSR-3-226],370 ± 30 nM,2600 ± 300 nM,1000 ± 100 nM,60000 ± 10000 M⁻¹ s⁻¹,>1500,12 mm,12 mm,6 mm,–,microbial activity versus AmpC (PDC-3) expressed in E. coli DH10B (E. coli DH10B PDC-3; disc assay): had microbial activity; K m against KPC-2 (KPC-2): 3.8 ± 0.4 µM
CC1(COC(=O)CCC(=O)O)C(C(=O)O)N2C(=O)CC2S1(=O)=O (centres unmarked) [PSR-4-155],440 ± 40 nM,2700 ± 200 nM,2100 ± 200 nM,50000 ± 10000 M⁻¹ s⁻¹,>1500,13 mm,6 mm,6 mm,>0.2 s⁻¹,Ki fold higher compared to PSR-4-157 (wt SHV-1; SHV-1): ~2 fold; KI fold higher compared to PSR-4-157 (SHV-1 [2]; SHV-1): ~2 fold; kinact/KI fold lower compared to PSR-4-157 (SHV-1 [2]; SHV-1): 2 fold
CC1(COC(=O)CCCCC(=O)O)C(C(=O)O)N2C(=O)CC2S1(=O)=O (centres unmarked) [PSR-4-157],160 ± 10 nM,1700 ± 100 nM,1000 ± 200 nM,100000 ± 20000 M⁻¹ s⁻¹,>1500,11 mm,6 mm,6 mm,–,fold higher IC50 compared to SA2-13 (SHV-1 [1]; SHV-1): 2 fold
C[C@]1(COC(=O)CCCC(=O)O)[C@H](C(=O)O)N2C(=O)C[C@H]2S1(=O)=O [SA2-13],81 ± 7 nM,1700 ± 100 nM,190 ± 10 nM,370000 ± 60000 M⁻¹ s⁻¹,120,14 mm,6 mm,6 mm,0.004 ± 0.001 s⁻¹,Ki (SHV K234R [6]): 2100 ± 200 nM; fold increase of K i for K234R SHV relative to wt SHV-1 (SHV K234R [6]; K234R vs wt SHV-1): 2 fold; melting temperature Tm of SHV K234R with inhibitor (SHV K234R [7]): unaffected; melting temperature Tm of SHV K234R with inhibitor (SHV K234R [7]; listed as MN-2-261): 48.7 °C; melting temperature Tm of SHV-1 with inhibitor (SHV-1 [8]): unaffected; melting temperature Tm of SHV-1 with inhibitor (SHV-1 [8]; listed as MN-2-261): 54.5 °C; k react fold decrease compared to tazobactam (SHV-1 [9]): about 10 fold
"C[C@]1(Cn2ccnn2)[C@H](C(=O)O)N2C(=O)C[C@H]2S1(=O)=O [tazobactam, reference compound]",–,–,–,–,5,21 mm,14 mm,6 mm,0.040 ± 0.001 s⁻¹,"inhibition of SHV-1 expressing cells (E. coli DH10B SHV-1; DH10B E. coli, high SHV-1 expression): Inhibition was not observed"
